Square brackets hold non-standard residues; d marks the D form. Peptide text beside a SMILES is read from it. * marks the point of attachment. Bn = c1ccc(C*)cc1; Ms = CS(=O)(=O)*
Target: Calpain-2 catalytic subunit (Sus scrofa)
Test: Inhibitory activity against Calpain-II receptor in porcine kidney

SMILES	Ki [nM]
CS(=O)(=O)N[C@H](COCc1ccccc1)C(=O)N[C@H](C=O)Cc1ccc(OCc2ccccc2)cc1 [(R)-3-Benzyloxy-N-[(S)-1-(4-benzyloxy-benzyl)-2-oxo-ethyl]-2-methanesulfonylamino-propionamide] (Ms-[dS](Bn)-Tyr(Bn)-aldehyde)	5
CC(OCc1ccccc1)[C@@H](NS(C)(=O)=O)C(=O)N[C@H](C=O)Cc1ccccc1 (stereo partly drawn) [(R)-N-((S)-1-Benzyl-2-oxo-ethyl)-3-benzyloxy-2-methanesulfonylamino-butyramide]	7
CS(=O)(=O)N[C@H](COCc1ccccc1)C(=O)N[C@H](C=O)CCCCNS(=O)(=O)c1ccccc1 [(R)-N-((S)-5-Benzenesulfonylamino-1-formyl-pentyl)-3-benzyloxy-2-methanesulfonylamino-propionamide]	17
CS(=O)(=O)N[C@H](CSCc1ccccc1)C(=O)N[C@H](C=O)Cc1ccccc1 [(S)-N-((S)-1-Benzyl-2-oxo-ethyl)-3-benzylsulfanyl-2-methanesulfonylamino-propionamide] (Ms-[dC](Bn)-Phe-aldehyde)	7

From BindingDB's records for doi:10.1021/jm980035y (Cephalon, 1998)
